Results published in patent publication US11851387B2, “Para-phenylenediamine derivative, 1,4-cyclohexyldiamine derivative, and fabricating method for 1,4-diamine cyclic compound derivative” (Yuanhan Materials Inc., priority 2021, dated 2023).

Experiment: Solubility in solvent commonly used in the synthesis of polyimide (NMP, DMAc)
Type: physicochemical
From the text: In the following descriptions, features and effects of the present disclosure will be described more specifically with reference to some Embodiments and some Comparative Examples. It is noted that without exceeding the scope of the present disclosure, the materials used, their amount and ratio, processing details, processing flow, etc. can be appropriately alternated. Therefore, the present disclosure should not be interpreted restrictively by the Embodiments provided below. Specifically, each Comparative Example and each Embodiment are thoroughly mixed with solvent commonly used in the synthesis of polyimide (e.g., N-methylpyrrolidone (NMP) and dimethylacetamide (DMAc)), and the solubility of each Comparative Example and each Embodiment in the solvent is measured, so as to verify the efficacy of the present disclosure. The detailed description and the measurement results of the solubility of each Comparative Example and each Embodiment are shown in Table 1.

Compound: Nc1ccc(N)cc1 [Comparative Example 1, para-phenylenediamine]
- Solubility (g/100 g solvent) (solvent NMP, dissolution temperature 50° C.): 4.1 g/100 g solvent

Compound: NC1CCC(N)CC1 (centres unmarked) [Comparative Example 2, 1,4-cyclohexanediamine]
- Solubility (g/100 g solvent) (solvent DMAc, dissolution temperature 70° C.): 5.7 g/100 g solvent
